Measured values reported in patent US9090658B2, “Base-substituted benzylamine analogs for use as coagulation factor Xa inhibitors, the production and use thereof” (The Medicines Company (Leipzig) GmbH, priority 2003, dated 2015).

Legend:
[1] = target: F Xa; settings: prior art, literature values; cited from earlier work
[2] = target: Thrombin (UniProt P00735); test: Determination of the inhibitory constants for thrombin (method of Stürzebecher et al. 1997); format: biochemical
From the text: The Ki values are the average of at least three determinations.

[3] = target: T1, factor Xa (Bos taurus, UniProt P00743); test: Determination of the inhibitory constants for factor Xa (chromogenic substrate Moc-D-Nle-Gly-Arg-pNA, Dixon method); format: biochemical, bovine; settings: for Ki: bovine factor Xa, 25° C., pH 8.0, average of at least three determinations
T1 construct: purchased Diagnostic Reagents Ltd, Thame, GB
Experimental: Determination of the inhibitory Effect
To determine the inhibitory effect, 200 μl of this buffer (0.05 M 0.154 M NaCl, 5% Ethanol, pH 8.0; contains the inhibitor), 25 μl of substrate (Moc-D-Nle-Gly-Arg-pNA in H2O; Pentapharm Ltd., Basle, Switzerland) and 50 μl of factor Xa (bovine, Diagnostic Reagents Ltd, thame, GB) were incubated at 25° C. After 3 min, the reaction was stopped By adding 25 μl of acetic acid (50%), and the absorption at 405 nm was determined using a Microplate Reader (MR 5000, Dynatech, Denkendorf, Germany). The Ki values were Founder by the Dixon method (boichem. J. 55, 170-171, 1953) by linear regression using a Computer program. The Ki values are the average of at least three determinations. The Thrombin inhibitions was determined in analogy to a method described earlier (Stürzebecher et al., J. Med. Chem. 40, 3091-3099, 1997).

T1 sequence (P00743 234-492 limits assumed): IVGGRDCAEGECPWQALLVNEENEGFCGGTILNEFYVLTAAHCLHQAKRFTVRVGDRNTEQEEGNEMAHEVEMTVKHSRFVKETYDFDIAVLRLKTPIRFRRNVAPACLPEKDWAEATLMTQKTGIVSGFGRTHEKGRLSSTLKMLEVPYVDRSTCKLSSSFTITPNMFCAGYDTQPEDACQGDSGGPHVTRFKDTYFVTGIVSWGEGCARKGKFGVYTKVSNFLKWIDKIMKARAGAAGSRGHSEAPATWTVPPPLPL
T1 sequence (P00743 41-180 partner limits assumed): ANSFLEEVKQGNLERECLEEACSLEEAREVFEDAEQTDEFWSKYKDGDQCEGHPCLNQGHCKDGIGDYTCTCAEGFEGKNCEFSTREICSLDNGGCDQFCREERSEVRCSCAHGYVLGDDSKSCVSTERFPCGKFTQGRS

Row | Compound | Ki [1] | Ki [2] | selectivity ratio SR (SR = Ki thrombin/Ki factor Xa) [3] | Ki [3]
1 | N=C(N)c1ccc(C=C2CCCCC(=Cc3ccc(C(=N)N)cc3)C2=O)cc1 [BABCH] | 13 nM |  |  | 
2 | N=C(N)c1ccc(CNC(=O)[C@H](CCCc2ccccc2)NC(=O)C(CCc2ccncc2)NS(=O)(=O)Cc2ccccc2)cc1 (stereo partly shown) [Compound 38] |  | 180 nM | 30 | 6 nM
3 | N=C(N)c1ccc(CNC(=O)[C@H](CCC(=O)OCc2ccccc2)NC(=O)C(CCc2ccncc2)NS(=O)(=O)Cc2ccccc2)cc1 (stereo partly shown) [Compound 39] |  | 170 nM | 26 | 6.4 nM
4 | N=C(N)c1ccc(CNC(=O)CNC(=O)[C@@H](/C=C/c2ccccc2)NS(=O)(=O)Cc2ccccc2)cc1 [Compound 40] |  | 1100 nM | 170 | 6.5 nM
5 | N=C(N)c1ccc(CNC(=O)CNC(=O)[C@@H](CCc2ccccc2)NS(=O)(=O)Cc2cccc(O)c2)cc1 [Compound 42] |  | 1500 nM | 288 | 7.2 nM
6 | N=C(N)c1ccc(CNC(=O)[C@H](CCC(=O)O)NC(=O)[C@@H](CCc2ccc(O)cc2)NS(=O)(=O)Cc2ccc([N+](=O)[O-])cc2)cc1 [Compound 43] |  | 15000 nM | 2000 | 7.5 nM
7 | COC(=O)Cc1ccc(CS(=O)(=O)NC(CCc2ccncc2)C(=O)NCC(=O)NCc2ccc(C(=N)N)cc2)cc1 (stereo not shown) [Compound 44] |  | 3800 nM | 463 | 8.2 nM
8 | N=C(N)c1ccc(CNC(=O)CNC(=O)[C@@H](CCc2ccccc2)NS(=O)(=O)Cc2cccc(N)c2)cc1 [Compound 45] |  | 1400 nM | 150 | 9.3 nM
9 | COC(=O)c1ccc(CS(=O)(=O)NC(CCc2ccncc2)C(=O)NCC(=O)NCc2ccc(C(=N)N)cc2)cc1 (stereo not shown) [Compound 46] |  | 7600 nM | 775 | 9.8 nM
10 | N=C(N)c1ccc(CNC(=O)CNC(=O)C(CCc2ccncc2)NS(=O)(=O)Cc2ccc(CC(=O)O)cc2)cc1 (stereo not shown) [Compound 49] |  | 38000 nM | 2923 | 13 nM
11 | N=C(N)c1ccc(CNC(=O)[C@H](CCC(=O)O)NC(=O)[C@@H](CCc2ccccc2)NS(=O)(=O)Cc2ccccc2)cc1 [Compound 50] |  | 15000 nM | 1153 | 13 nM
12 | CC(C)(C)OC(=O)CC[C@H](NC(=O)[C@@H](CCc1ccncc1)NS(=O)(=O)Cc1ccc([N+](=O)[O-])cc1)C(=O)NCc1ccc(C(=N)N)cc1 [Compound 51] |  | 1400 nM | 87 | 16 nM
13 | N=C(N)c1ccc(CNC(=O)[C@H](CCC(=O)O)NC(=O)[C@@H](CCc2ccncc2)NS(=O)(=O)Cc2ccc(N)cc2)cc1 [Compound 52] |  | 84000 nM | 5250 | 16 nM
14 | N=C(N)c1ccc(CNC(=O)[C@H](CCCC(=O)O)NC(=O)[C@@H](CCc2ccccc2)NS(=O)(=O)Cc2ccccc2)cc1 [Compound 53] |  | 800 nM | 27 | 30 nM
15 | CC(C)(C)OC(=O)CC[C@H](NC(=O)[C@@H](CCc1ccc(O)cc1)NS(=O)(=O)Cc1ccc([N+](=O)[O-])cc1)C(=O)NCc1ccc(C(=N)N)cc1 [Compound 54] |  | 690 nM | 18 | 39 nM
16 | N=C(N)c1ccc(CNC(=O)CNC(=O)[C@@H](CCCc2ccccc2)NS(=O)(=O)Cc2ccccc2)cc1 [Compound 55] |  | 210 nM | 3 | 67 nM
17 | N=C(N)c1ccc(CNC(=O)[C@H](CCC(=O)O)NC(=O)[C@@H](CCc2ccccc2)NS(=O)(=O)Cc2cccc([N+](=O)[O-])c2)cc1 [Compound 56] |  | 13000 nM | 156 | 83 nM
18 | CC(C)(C)OC(=O)CCC[C@H](NC(=O)[C@@H](CCc1ccccc1)NS(=O)(=O)Cc1ccccc1)C(=O)NCc1ccc(C(=N)N)cc1 [Compound 57] |  | 460 nM | 3.5 | 130 nM
19 | N=C(N)c1ccc(CNC(=O)CNC(=O)[C@@H](C/C=C/c2ccccc2)NS(=O)(=O)Cc2ccccc2)cc1 [Compound 58] |  | 1800 nM | 3.1 | 580 nM
20 | N=C(N)c1ccc(CNC(=O)CNC(=O)[C@@H](CCc2ccccc2)NS(=O)(=O)Cc2cc[n+]([O-])cc2)cc1 [Compound 59] |  | 16000 nM | 16 | 970 nM
21 | N=C(N)c1ccc(CNC(=O)CNC(=O)C(CCc2cc[n+]([O-])cc2)NS(=O)(=O)Cc2ccccc2)cc1 (stereo not shown) [Compound 60] |  | 3500 nM | 730 | 4.8 nM
22 | N=C(N)c1ccc(CNC(=O)[C@H](CCC(=O)NCc2ccccc2)NC(=O)[C@@H](CCc2ccncc2)NS(=O)(=O)Cc2ccccc2)cc1 [Compound 61] |  | 1700 nM | 250 | 6.8 nM
23 | CS(=O)(=O)N[C@H](CCc1ccccc1)C(=O)NCC(=O)NCc1ccc(C(=N)N)cc1 [Compound 62] |  | 1300 nM | 1.2 | 1060 nM
24 | CC(C)(C)OC(=O)CN[C@H](CCc1ccccc1)C(=O)NCC(=O)NCc1ccc(C(=N)N)cc1 [Compound 63] |  | 1500 nM | 2.4 | 620 nM
25 | N=C(N)c1ccc(CNC(=O)CNC(=O)[C@@H](CCc2ccccc2)NCC(=O)O)cc1 [Compound 64] |  | 28000 nM | 32 | 870 nM
26 | Nc1ccc(CNC(=O)CNC(=O)C(CCc2ccncc2)NS(=O)(=O)Cc2ccccc2)cn1 (stereo not shown) [Compound 65] |  | 100000 nM | 833 | 120 nM
